Assay [1] addresses recombinant human Mcl-1 (residues 171-327) / Bim interaction (Homo sapiens (Human), UniProt Q07820). The assay is described as follows: biochemical. The format is binding. As to conditions: read-out: Mcl-1 HTRF IC50. A general note: In TR-FRET formats the signal depends on donor and acceptor labels being close together.
Assay [2] deals with human multiple myeloma cell line, OPM-2. The assay is described as follows: Cell viability assay (OPM-2 10 FBS), CellTiter-Glo. Type of assay: cell-based. The procedure, abridged:
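Steps: plate cells at 3000/well in 10% FBS growth medium, add serially diluted compound, incubate 16 h at 37 °C with 5% CO2, add detection reagent and read luminescence after 25 min. A 4-parameter logistic model gives IC50.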
(In general: ATP-based viability assays read luminescence as a measure of living cells.)

[3] abbreviates: 0.1 nM Mcl-1(171-327), 0.05 nM biotin-Bim (51-76).
Where [4] appears, read: TR-FRET, Mcl-1(171-327) / biotin-Bim (51-76).
Where [5] appears, read: read-out: OPM-2 10% FBS IC50 IP, OPM-2 cells, 10% FBS, 16 h, CellTiter-Glo.
The mark [6] stands for this setting: Homo sapiens, OPM-2, 16 h, read-out: OPM-2 10% FBS IC50 IP, OPM-2 cells, 10% FBS, 16 h, CellTiter-Glo.
Where [7] appears, read: Homo sapiens, OPM-2, 16 h, read-out: OPM-2 10% FBS IC50 IP, OPM-2 cells, 10% FBS, 16 h incubation.

Read-outs that look alike come from different tables or passages of the source.

recombinant human Mcl-1 (residues 171-327) / Bim interaction, sequence (Q07820 171-327): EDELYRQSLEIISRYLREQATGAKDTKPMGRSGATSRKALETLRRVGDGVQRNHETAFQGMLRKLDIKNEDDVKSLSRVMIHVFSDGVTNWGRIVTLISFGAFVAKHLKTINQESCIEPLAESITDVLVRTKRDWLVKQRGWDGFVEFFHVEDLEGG

As for `CO[C@@]1(CN2CCN3CCC(F)(F)C[C@H]3C2)/C=C/C[C@H](C)[C@@H](C)S(=O)(=O)NC(=O)c2ccc3c(c2)N(C[C@@H]2CC[C@H]21)C[C@@]1(CCCc2cc(Cl)ccc21)CO3` (single isomer, unassigned) [Example 289], the IC50 in assay [1] (setting [3]) came to 0.214 nM; in assay [2] (read-out: OPM-2 10% FBS IC50 IP, OPM-2 cells, 10% FBS, 16 h incubation), 131 nM.
In the case of `CO[C@]1(C[C@H](O)C(C)C)/C=C/C[C@H](C)[C@@H](C)S(=O)(=O)NC(=O)c2ccc3c(c2)N(C[C@@H]2CC[C@H]21)C[C@@]1(CCCc2cc(Cl)ccc21)CO3` [Example 100358, (1S,3′R,6′R,7′R,8′E,11′S,12′R)-6-chloro-7′-((2S)-2-hydroxy-3-methylbutyl)-7′-methoxy-11′,12′-dimethyl-3,4-dihydro-2H,15′H-spiro[naphthalene-1,22′-[20]oxa[13]thia[1,14]diazatetracyclo [14.7.2.0~3,6~.0~19,24~]pentacosa[8,16,18,24]tetraen]-15′-one 13′,13′-dioxide], the IC50 was determined as 0.118 nM in assay [1] (setting [4]) and 81 nM in assay [2] (setting [5]).
`Cc1ncoc1C[C@]1(O)/C=C/C[C@H](C)[C@@H](C)S(=O)(=O)NC(=O)c2ccc3c(c2)N(C[C@@H]2CC[C@H]21)C[C@@]1(CCCc2cc(Cl)ccc21)CO3` [Example 100572, (1S,3′R,6′R,7′S,8′E,11′S,12′R)-6-chloro-7′-hydroxy-11′,12′-dimethyl-7′-((4-methyl-1,3-oxazol-5-yl)methyl)-3,4-dihydro-2H,15′H-spiro[naphthalene-1,22′-[20]oxa[13]thia[1,14]diazatetracyclo [14.7.2.0~3,6~.0~19,24~]pentacosa[8,16,18,24]tetraen]-15′-one 13′,13′-dioxide]: the IC50 in assay [1] (setting [4]) was 0.174 nM; in assay [2] (setting [6]) it was 1160 nM.
As to `C[C@@H]1[C@@H](C)C/C=C/[C@@](O)(CC(=O)N(C)CCN(C)C)[C@@H]2CC[C@H]2CN2C[C@@]3(CCCc4cc(Cl)ccc43)COc3ccc(cc32)C(=O)NS1(=O)=O` [Example 100281, 2-((1S,3′R,6′R,7′S,8′E,11′S,12′R)-6-chloro-7′-hydroxy-11′,12′-dimethyl-13′,13′-dioxido-15′-oxo-3,4-dihydro-2H-spiro[naphthalene-1,22′-[20]oxa[13]thia[1,14]diazatetracyclo [14.7.2.0~3,6~.0~19,24~]pentacosa[8,16,18,24]tetraen]-7′-yl)-N-(2-(dimethylamino)ethyl)-N-methylacetamide], the IC50 was 0.117 nM in assay [1] (setting [4]) and 352 nM in assay [2] (setting [5]).
In the case of `COCCN(C)C1CN(C[C@]2(OC)/C=C/C[C@H](C)[C@@H](C)S(=O)(=O)NC(=O)c3ccc4c(c3)N(C[C@@H]3CC[C@H]32)C[C@@]2(CCCc3cc(Cl)ccc32)CO4)C1` [Example 260, (1S,3′R,6′R,7′S,8′E,11′S,12′R)-6-chloro-7′-methoxy-7′-((3-((2-methoxyethyl)(methyl)amino)-1-azetidinyl)methyl)-11′,12′-dimethyl-3,4-dihydro-2H,15′H-spiro[naphthalene-1,22′-[20]oxa[13]thia[1,14]diazatetracyclo [14.7.2.0~3,6~.0~19,24~]pentacosa[8,16,18,24]tetraen]-15′-one 13′,13′-dioxide], the values for the IC50 in assay [1] (setting [3]) and in assay [2] (setting [7]) were 0.083 nM and 103 nM, respectively.
`CO[C@]1(CN2C[C@@H](C)N[C@@H](C)C2)/C=C/C[C@H](C)[C@@H](C)S(=O)(=O)NC(=O)c2ccc3c(c2)N(C[C@@H]2CC[C@H]21)C[C@@]1(CCCc2cc(Cl)ccc21)CO3` [Example 329, (1S,3′R,6′R,7′R,8′E,11′S,12′R)-6-chloro-7′-(((3R,5S)-3,5-dimethyl-1-piperazinyl)methyl)-7′-methoxy-11′,12′-dimethyl-3,4-dihydro-2H,15′H-spiro[naphthalene-1,22′-[20]oxa[13]thia[1,14]diazatetracyclo [14.7.2.0~3,6~.0~19,24~]pentacosa[8,16,18,24]tetraen]-15′-one 13′,13′-dioxide]: the IC50 in assay [1] (setting [3]) turned out to be 0.137 nM; in assay [2] (setting [7]) it was 243 nM.
In the same order, the values of `CC[C@@H]1CC/C=C/[C@@](CN2CCN3CCCC[C@@H]3C2)(OC)[C@@H]2CC[C@H]2CN2C[C@@]3(CCCc4cc(Cl)ccc43)COc3ccc(cc32)C(=O)NS1(=O)=O` [Example 32, (1S,3′R,6′R,7′R,8′E,12′R)-6-chloro-12′-ethyl-7′-methoxy-7′-((9aR)-octahydro-2H-pyrido[1,2-a]pyrazin-2-ylmethyl)-3,4-dihydro-2H,15′H-spiro[naphthalene-1,22′-[20]oxa[13]thia[1,14]diazatetracyclo [14.7.2.0~3,6~.0~19,24~]pentacosa[8,16,18,24]tetraen]-15′-one 13′,13′-dioxide] are 0.128 nM and 147 nM.
On to `C[C@@H]1[C@@H](C)CC2C=CC[C@@](O)(C2)[C@@H]2CC[C@H]2CN2C[C@@]3(CCCc4cc(Cl)ccc43)COc3ccc(cc32)C(=O)NS1(=O)=O` (stereo in doubt) [Example 100058, (1S,3′R,6′R,7′R,11′S,13′S,14′R)-6-chloro-7′-hydroxy-13′,14′-dimethyl-3,4-dihydro-2H,17′H-spiro[naphthalene-1,24′-[22]oxa[15]thia[1,16]diazapentacyclo [16.7.2.1~7,11~.0~3,6~.0~21,26~]octacosa [9,18,20,26]tetraen]-17′-one 15′,15′-dioxide], for which the IC50 in assay [1] (setting [4]) was found to be 1.76 nM; in assay [2] (setting [6]) it was 3360 nM.
Regarding `C[C@@H]1[C@@H](C)C/C=C/[C@@](O)(C#CCCN2CCOCC2)[C@@H]2CC[C@H]2CN2C[C@@]3(CCCc4cc(Cl)ccc43)COc3ccc(cc32)C(=O)NS1(=O)=O` (single isomer, unassigned) [Example 100017], the IC50 in assay [1] (setting [4]) amounted to 0.039 nM; in assay [2] (setting [5]) it was 40 nM.
In the same order, the values of `C[C@@H]1[C@@H](C)CCC[C@@](O)(C#CCCN2CCOCC2)[C@@H]2CC[C@H]2CN2C[C@@]3(CCCc4cc(Cl)ccc43)COc3ccc(cc32)C(=O)NS1(=O)=O` [Example 100371, (1S,3′R,6′R,7′S,11′S,12′R)-6-chloro-7′-hydroxy-11′,12′-dimethyl-7′-(4-(4-morpholinyl)-1-butyn-1-yl)-3,4-dihydro-2H,15′H-spiro[naphthalene-1,22′-[20]oxa[13]thia[1,14]diazatetracyclo [14.7.2.0~3,6~.0~19,24~]pentacosa[16,18,24]trien]-15′-one 13′,13′-dioxide] are 0.39 nM and 307 nM.
The like results for `C[C@@H]1[C@@H](C)C/C=C/[C@@](O)(CC(=O)N(C)C)[C@@H]2CC[C@H]2CN2C[C@@]3(CCCc4cc(Cl)ccc43)COc3ccc(cc32)C(=O)NS1(=O)=O` [Example 100077, 2-((1S,3′R,6′R,7′S,8′E,11′S,12′R)-6-chloro-7′-hydroxy-11′,12′-dimethyl-13′,13′-dioxido-15′-oxo-3,4-dihydro-2H-spiro[naphthalene-1,22′-[20]oxa[13]thia[1,14]diazatetracyclo [14.7.2.0~3,6~.0~19,24~]pentacosa[8,16,18,24]tetraen]-7′-yl)-N,N-dimethylacetamide] were, in that order, 0.19 nM and 52 nM.
`CCC[C@]1(O)/C=C/C[C@H](C)[C@@H](C)S(=O)(=O)NC(=O)c2ccc3c(c2)N(C[C@@H]2CC[C@H]21)C[C@@]1(CCCc2cc(Cl)ccc21)CO3` [Example 100232, (1S,3′R,6′R,7′S,8′E,11′S,12′R)-6-chloro-7′-hydroxy-11′,12′-dimethyl-7′-propyl-3,4-dihydro-2H,15′H-spiro[naphthalene-1,22′-[20]oxa[13]thia[1,14]diazatetracyclo [14.7.2.0~3,6~.0~19,24~]pentacosa[8,16,18,24]tetraen]-15′-one 13′,13′-dioxide]: the concentration for half-maximal inhibition (IC50) worked out at 0.152 nM in assay [1] and 389 nM in assay [2] (setting [6]).
Regarding `CC[C@@H]1CC/C=C/[C@](CN2CCN3CCOC[C@@H]3C2)(OC)[C@@H]2CC[C@H]2CN2C[C@@]3(CCCc4cc(Cl)ccc43)COc3ccc(cc32)C(=O)NS1(=O)=O` [Example 28, (1S,3′R,6′R,7′S,8′E,12′R)-6-chloro-12′-ethyl-7′-((9aS)-hexahydropyrazino[2,1-c][1,4]oxazin-8(1H)-ylmethyl)-7′-methoxy-3,4-dihydro-2H,15′H-spiro[naphthalene-1,22′-[20]oxa[13]thia[1,14]diazatetracyclo [14.7.2.0~3,6~.0~19,24~]pentacosa[8,16,18,24]tetraen]-15′-one 13′,13′-dioxide], the IC50 in assay [1] (setting [3]) turned out to be 0.082 nM; in assay [2] (setting [7]), 111 nM.
In the case of `CC[C@@]1(O)/C=C/C[C@H](C)[C@@H](C)S(=O)(=O)NC(=O)c2ccc3c(c2)N(C[C@@H]2CC[C@H]21)C[C@@]1(CCCc2cc(Cl)ccc21)CO3` [Example 100206, (1S,3′R,6′R,7′R,8′E,11′S,12′R)-6-chloro-7′-ethyl-7′-hydroxy-11′,12′-dimethyl-3,4-dihydro-2H,15′H-spiro[naphthalene-1,22′-[20]oxa[13]thia[1,14]diazatetracyclo [14.7.2.0~3,6~.0~19,24~]pentacosa[8,16,18,24]tetraen]-15′-one 13′,13′-dioxide], the results for the IC50 in assay [1] (setting [4]) and in assay [2] (setting [6]) were 1.26 nM and 1750 nM, respectively.
Consider `CC#C[C@]1(O)/C=C/C[C@H](C)[C@@H](C)S(=O)(=O)NC(=O)c2ccc3c(c2)N(C[C@@H]2CC[C@H]21)C[C@@]1(CCCc2cc(Cl)ccc21)CO3` [Example 100499, (1S,3′R,6′R,7′S,8′E,11′S,12′R)-6-chloro-7′-hydroxy-11′,12′-dimethyl-7′-(1-propyn-1-yl)-3,4-dihydro-2H,15′H-spiro[naphthalene-1,22′-[20]oxa[13]thia[1,14]diazatetracyclo [14.7.2.0~3,6~.0~19,24~]pentacosa[8,16,18,24]tetraen]-15′-one 13′,13′-dioxide], for which the IC50 came out at 0.509 nM in assay [1] and 1120 nM in assay [2] (setting [6]).

The IC50 is the concentration that inhibits the measured activity by half.

The values are drawn from US10821115B2, “Compounds that inhibit Mcl-1 protein” (priority 2017, dated 2020).
